We go through one compound from ChEMBL document CHEMBL4840301, “Homophymamide A, Heterodetic Cyclic Tetrapeptide from a Homophymia sp. Marine Sponge: A Cautionary Note on Configurational Assignment of Peptides That Contain a Ureido Linkage” (J Nat Prod, 2021).

This test deals with T1, Carboxypeptidase B (Sus scrofa, UniProt P09955).
T1 sequence (P09955 whole entry): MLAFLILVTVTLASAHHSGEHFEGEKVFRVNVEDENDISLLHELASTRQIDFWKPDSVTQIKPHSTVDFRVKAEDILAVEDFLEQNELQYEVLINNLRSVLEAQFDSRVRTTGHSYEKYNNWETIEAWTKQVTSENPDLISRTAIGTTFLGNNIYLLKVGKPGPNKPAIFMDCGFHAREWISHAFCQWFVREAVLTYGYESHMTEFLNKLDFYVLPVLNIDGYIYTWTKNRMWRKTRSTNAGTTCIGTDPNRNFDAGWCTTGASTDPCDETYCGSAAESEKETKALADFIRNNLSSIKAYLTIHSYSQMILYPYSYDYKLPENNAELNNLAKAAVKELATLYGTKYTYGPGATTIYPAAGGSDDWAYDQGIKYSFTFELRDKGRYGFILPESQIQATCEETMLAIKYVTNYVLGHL
As to the kind of experiment: Inhibition of carboxypeptidase B in porcine pancreas using hippuryl-L-Arg as substrate preincubated with substrate for 2 mins followed by enzyme addition and measured after 5 mins by colorimetric method. Type of test: tissue-based.

The IC50 is the concentration needed to halve the response being measured.

Regarding `CC[C@H](C)[C@@H]1NC(=O)[C@H](CC(C)C)N(C)C(=O)[C@H](C)NC(=O)[C@H](NC(=O)N[C@@H](CCCNC(=N)N)C(=O)O)CCCCNC1=O`, the IC50 is 590 nM.
